Data reported in patent US8026359B2, “Fungicidal heterocyclic amines” (E.I. du Pont de Nemours and Company, priority 2007, dated 2011).
Marks after values point to notes of the source that are not given here.

Columns and labels:
Type in all cases: in vivo
Phytophthora infestans = details: 200 ppm; 100 = 100% disease control, 0 = no control relative to controls
[1] = test system: Erysiphe graminis f. sp. tritici; test: Test A: wheat powdery mildew, preventive spray on wheat seedlings
Summary of the method: (§1)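 Two spray concentrations are used, 40 ppm and 200 ppm, the latter matching a rate of 500 g/ha, applied until run-off. The carrier is half acetone, half purified water with 250 ppm surfactant, and acetone for initial dissolution makes up 3% of the volume.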

[2] = test system: Puccinia recondita f. sp. tritici; test: Test B: wheat leaf rust, preventive spray on wheat seedlings
Summary of the method: as §1

[3] = test system: Colletotrichum orbiculare; test: Test I: cucumber Colletotrichum anthracnose, preventive spray on cucumber seedlings; details: 200 ppm; 100 = 100% disease control, 0 = no control relative to controls
Summary of the method: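 Compound was dissolved in acetone (3% of final volume), then suspended in 50/50 acetone/water with 250 ppm Trem 014 surfactant. Cucumber seedlings were sprayed to run-off as a preventive treatment at 200 ppm (equivalent to 500 g/ha) or 40 ppm.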

Rhizoctonia oryzae = test: Test J: turf brown patch, preventive spray on creeping bent grass seedlings; details: 200 ppm; 100 = 100% disease control, 0 = no control relative to controls
Source text: (§2) General protocol for preparing test suspensions for Tests A-R: The test compounds were first dissolved in acetone in an amount equal to 3% of the final volume and then suspended at the desired concentration (in ppm) in acetone and purified water (50/50 mix) containing 250 ppm of the surfactant Trem® 014 (polyhydric alcohol esters). The resulting test suspensions were then used in tests A-R. In Tests A-M, compounds were sprayed as a 200 ppm test suspension (equivalent to a rate of 500 g/ha) or as a 40 ppm test suspension to the point of runoff on the test plants. In Tests N-R, compounds were sprayed as a 100 g/ha test suspension (equivalent to a rate of 100 ppm) on the test plants at an application volume of 1000 L/ha. The test suspension was sprayed to the point of run-off on creeping bent grass seedlings.

Botrytis cinerea = test: Test F: tomato Botrytis, preventive spray on tomato seedlings
Summary of the method: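 Compounds dissolved in acetone (3% of final volume), suspended in 50/50 acetone/water with 250 ppm Trem® 014. Sprayed preventively to run-off on tomato seedlings at 200 ppm (500 g/ha) or 40 ppm.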

Septoria nodorum = test: Test C: wheat glume blotch, preventive spray on wheat seedlings
Summary of the method: as §1

Plasmopara viticola = test: Test L: grape downy mildew, spray after inoculation of grape seedlings; details: 200 ppm; 100 = 100% disease control, 0 = no control relative to controls
Source text: as §2, with “L/ha. Grape seedlings were inoculated with a spore suspension of Plasmopara viticola (the causal agent of grape downy mildew) and incubated in a saturated atmosphere at 20° C. for 24 h. After a short drying period, the” for “L/ha. The”, “on the grape seedlings and then moved to a growth chamber at 20° C. for 6 days, after which time the test units were placed back into a saturated atmosphere at 20° C. for 24 h. Upon removal, disease ratings were made.” for “on creeping bent grass seedlings.”

Fusarium graminearum = test: whole plant or invertebrate
Pythium aphanidermatum = test: Test M: bluegrass pythium blight, preventive spray on bluegrass seedlings; details: 200 ppm; 100 = 100% disease control, 0 = no control relative to controls
Source text: as §2, with “bluegrass” for “creeping bent grass”

Septoria tritici = test: Test D: wheat leaf blotch, preventive spray on wheat seedlings
Summary of the method: as §1

Alternaria solani = test: Test H: tomato early blight, preventive spray on seedlings
Source text: as §2, with “wheat” for “creeping bent grass”

[4] = 200 ppm, 100 = 100% disease control, 0 = no control relative to controls
[5] = Fusarium graminearum, in Triticum aestivum, 192 h, read-out: Test E disease control rating

Structure (SMILES) | Test K disease control rating (Phytophthora infestans) [%] | Test A disease control rating [1, 4] [%] | Test B disease control rating [2, 4] [%] | Test I disease control rating [3] [%] | Test J disease control rating (Rhizoctonia oryzae) [%] | Test F disease control rating (Botrytis cinerea; [4]) [%] | Test C disease control rating (Septoria nodorum; [4]) [%] | Test L disease control rating (Plasmopara viticola) [%] | Test E disease control rating (Fusarium graminearum; [4]) [%] | Test M disease control rating (Pythium aphanidermatum) [%] | Test D disease control rating (Septoria tritici; [4]) [%] | Test H disease control rating (Alternaria solani; [4]) [%] | further results
COCC(C)Nc1cc(-c2ccnc(Nc3ccccc3)n2)ncn1 (stereo not drawn) [Compound 108] | 0 | 0 | 80 | 0 | 0 | 38 | 0 | 0 | 98 | 0 |  |  | 
COCC(C)Nc1nccc(-c2ccnc(Nc3cccc(Cl)c3F)c2)n1 (stereo not drawn) [Compound 46] | 0 | 0 | 91 | 0 | 0 | 7 | 97 | 0 | 94 | 0 |  |  | 
CC(C)(C)Nc1nccc(-c2ncnc(Nc3cc(F)cc(F)c3)n2)n1 [Compound 33] |  | 0 | 87 |  |  | 0 | 99 |  |  |  | 22 | 94 | Test E disease control rating (Fusarium graminearum; 40 ppm (marked *)): 83* %
COCC(C)Nc1nccc(-c2ccnc(Nc3ccc(F)cc3)c2)n1 (stereo not drawn) [Compound 50] | 0 | 0 | 99 | 96 | 0 | 94 | 84 | 0 | 72 | 0 |  |  | 
Cc1cc(Cl)cc(Cl)c1Nc1cc(-c2ccnc(NC3CCOCC3)n2)ccn1 [Compound 100] |  | 0 | 98 | 0 |  | 0 | 98 |  | 96 |  | 77 | 99 | 
Fc1cc(F)cc(Nc2ncnc(-c3ccnc(NC4CCOCC4)n3)n2)c1 [Compound 34] |  | 0 | 98 |  |  | 0 | 100 |  | 68 |  | 59 | 94 | 
Fc1ccc(F)c(Nc2cc(-c3ccnc(NC4CCOCC4)n3)ccn2)c1F [Compound 73] | 0 | 43 | 96 | 85 |  | 57 | 99 |  | 0 | 0 | 40 |  | 
COCC(C)Nc1nccc(-c2ccnc(Nc3ccc(F)cc3F)c2)n1 (stereo not drawn) [Compound 47] | 0 | 0 | 85 | 40 | 0 | 0 | 0 | 0 | 92 | 0 |  |  | 
COC(C)(C)Nc1nccc(-c2ncnc(Nc3cc(F)cc(F)c3)n2)n1 [Compound 32] |  | 0 | 99 |  |  | 94 | 100 |  | 38 |  | 39 | 99 | 
COCC(C)(C)Nc1nccc(-c2ncnc(Nc3cc(F)cc(F)c3)n2)n1 [Compound 30] |  | 67 | 99 |  |  | 96 | 100 |  | 91 |  | 88 |  | Test H disease control rating (Alternaria solani; 40 ppm (marked *)): 87* %
COC[C@H](C)Nc1nccc(-c2ncnc(Nc3cc(F)cc([N+](=O)[O-])c3)n2)n1 [Compound 39, N-(3-fluoro-5-nitrophenyl)-4-[2-[[(1S)-2-methoxy-1-methylethyl]amino]-4-pyrimidinyl]-1,3,5-triazin-2-amine] |  |  |  |  |  |  |  |  |  |  |  |  | pest or weed control at 40 ppm (Septoria tritici; Zymoseptoria tritici, 504 h, 40 ppm (marked *), read-out: Test D disease control rating): 24%; pest or weed control at 40 ppm ([1]; Blumeria graminis, 192 h, 40 ppm (marked *), read-out: Test A disease control rating): 0%; pest or weed control at 40 ppm ([2]; Puccinia recondita, 192 h, 40 ppm (marked *), read-out: Test B disease control rating): 98%; pest or weed control at 40 ppm (Botrytis cinerea; Botrytis cinerea, 120 h, 40 ppm (marked *), read-out: Test F disease control rating): 60%; pest or weed control at 40 ppm (Septoria nodorum; Parastagonospora nodorum, 216 h, 40 ppm (marked *), read-out: Test C disease control rating): 99%; pest or weed control at 40 ppm (Fusarium graminearum; [5]): 82%; pest or weed control at 40 ppm (Alternaria solani; Alternaria solani, 168 h, 40 ppm (marked *), read-out: Test H disease control rating): 99%
COC[C@H](C)Nc1nccc(-c2ncnc(Nc3ccc(C#N)nc3)n2)n1 [Compound 37, 5-[[4-[2-[[(1S)-2-methoxy-1-methylethyl]amino]-4-pyrimidinyl]-1,3,5-triazinyl]amino]-2-pyridinecarbonitrile] |  |  |  |  |  |  |  |  |  |  |  |  | pest or weed control at 200 ppm (Septoria tritici; Zymoseptoria tritici, 504 h, 200 ppm, 100 = 100% disease control, 0 = no control relative to controls, read-out: Test D disease control rating): 0%; pest or weed control at 200 ppm ([1]; Blumeria graminis, 192 h, 200 ppm, 100 = 100% disease control, 0 = no control relative to controls, read-out: Test A disease control rating): 79%; pest or weed control at 200 ppm ([2]; Puccinia recondita, 192 h, 200 ppm, 100 = 100% disease control, 0 = no control relative to controls, read-out: Test B disease control rating): 99%; pest or weed control at 200 ppm (Botrytis cinerea; Botrytis cinerea, 120 h, 200 ppm, 100 = 100% disease control, 0 = no control relative to controls, read-out: Test F disease control rating): 0%; pest or weed control at 200 ppm (Septoria nodorum; Parastagonospora nodorum, 216 h, 200 ppm, 100 = 100% disease control, 0 = no control relative to controls, read-out: Test C disease control rating): 98%; pest or weed control at 200 ppm (Fusarium graminearum; [5]): 41%; pest or weed control at 200 ppm (Alternaria solani; Alternaria solani, 168 h, 200 ppm, 100 = 100% disease control, 0 = no control relative to controls, read-out: Test H disease control rating): 72%
